Measured values as given in US20170275706A1, “ALK AND ROS KINASE IN CANCER” (priority 2010, published 2017).

Legend:
Karpas 299 cells [1] = assay: Cleaved caspase-3 flow cytometry apoptosis assay, Karpas 299; assay type: cell-based; details: FIG. 7; presence of TAE-684
Excerpt: (§1) The mechanism of death of the BaF3 and Karpas 299 cells was next assessed by measuring the percentage of cleaved-caspase 3 positive cells by flow cytometry assay using cleaved caspase-3 as a marker for apoptosis.

[2] = tested on: BaF3 cells expressing FIG-ROS(L); assay: Cleaved caspase-3 flow cytometry apoptosis assay, BaF3 FIG-ROS(L); assay type: cell-based; details: FIG. 7; presence of TAE-684
Excerpt: as §1

[3] = tested on: BaF3 cells expressing FIG-ROS(S); assay: Cleaved caspase-3 flow cytometry apoptosis assay, BaF3 FIG-ROS(S); assay type: cell-based; details: FIG. 7; presence of TAE-684
Excerpt: as §1

FIG-ROS(S) = molecular target: T1, FIG-ROS(S) (Homo sapiens, UniProt P08922); assay: Western blotting, phosphorylation of FIG-ROS(S) in BaF3 cells; assay type: cell-based
T1 construct: expressed in transfected cells; host or cells: BaF3 cells, retroviral transduction
Excerpt: (§2) All antibodies were from Cell Signaling Technology, Inc. (Danvers, Mass.)
(§3) Since ROS, ALK, LTK, InsR, and IGFIR belong to the same family of tyrosine kinases, they may share similar structure in the kinase domain.

STAT3, AKT, ERK, Shp2 [4] = assay: Western blotting, downstream signaling phosphorylation in FIG-ROS(S) and FIG-ROS(L) expressing BaF3 cells; assay type: cell-based
Excerpt: as §2, §3

STAT3, AKT, ERK, Shp2 [5] = assay: Western blotting, downstream signaling phosphorylation in BaF3 cells transduced with FLT-3ITD; assay type: cell-based; details: BaF3 FLT-3ITD
Excerpt: as §2, §3

[6] = tested on: BaF3 expressing FIG-ROS(S); assay: MTS cell growth assay, BaF3 cells expressing FIG-ROS(S); assay type: cell-based; details: FIG. 6; 0-1000 nM TAE-684, 72 hours
Experimental: (§4) BaF3 and Karpas 299 cells were obtained from DSMZ (Deutsche Sammlung von Mikroorganismen und Zellkulturen GmbH, Germany). BaF3 cells, which need interleukin-3 to survive, were maintained at 37° C. in RPMI-1640 medium (Invitrogen) with 10% fetal bovine serum (FBS) (Sigma) and 1.0 ng/ml murine IL-3 (R&D Systems). Karpas 299 cells (a lymphoma cell line) were grown in RPMI-1640 with 10% FBS.
(§5) BaF3 cells were transduced with retrovirus encoding FIG-ROS(S), FIG-ROS(L), or FLT-3ITD (the Internal tandem duplication mutation in FLT3 causes AML leukemia), and selected for IL3 independent growth. Karpas 299 cells, which express NPM-ALK, was used as a positive control. Retroviruses were generated as previously described (see PCT Publication No. WO 2010/093928, incorporated by reference).
(§6) A MTS assay was performed using the CellTiter 96 Aqueous One Solution Reagent (Promega, Catalog No G3582). […] After 72 hours, 20 μl of the CellTiter 96 Aqueous One Solution Reagent was added into each well of a 96 well assay plate (flat bottom), and then 100 μl of cells grown with or without treatment. Media-only wells were used as controls. The 96 well plate was incubated for 1-4 hours at 37° C., and then viable cells were counted by reading the absorbance at 490 nm using a 96 well plate reader.

ERK, STAT3 = assay: Western blotting, ERK/STAT3 phosphorylation in Karpas 299 cells; assay type: cell-based
Excerpt: as §2, §3

[7] = tested on: BaF3 expressing FIG-ROS(L); assay: MTS cell growth assay, BaF3 cells expressing FIG-ROS(L); assay type: cell-based; details: FIG. 6; 0-1000 nM TAE-684, 72 hours
Experimental: as §4, §5, §6

FIG-ROS(L) = FIG-ROS(L) (Homo sapiens, UniProt P08922); assay: Western blotting, phosphorylation of FIG-ROS(L) in BaF3 cells; assay type: cell-based
Excerpt: as §2, §3

Karpas 299 cells [8] = details: FIG. 6; 0-1000 nM TAE-684, 72 hours
Experimental: as §4, §5, §6

BaF3 expressing FLT3ITD = details: FIG. 6; 0-1000 nM TAE-684, 72 hours
Experimental: as §4, §5, §6

[9] = FIG. 8, 0, 10, 50, or 100 nM TAE-684 for three hours
[10] = FIG. 10, 0, 0.1, 0.3, or 1.0 uM crizotinib for three hours

SMILES | mechanism of death (cleaved-caspase 3 positive cells) (Karpas 299 cells [1]) | mechanism of death (cleaved-caspase 3 positive cells) [2] | mechanism of death (cleaved-caspase 3 positive cells) [3] | phosphorylation of FIG-ROS(S) (FIG-ROS(S); [9]) | phosphorylation of STAT3, AKT, and ERK, and Shp2 (STAT3, AKT, ERK, Shp2 [4]; [9]) | phosphorylation of STAT3, AKT, and ERK, and Shp2 (STAT3, AKT, ERK, Shp2 [5]; [9]) | cellular growth response [6] | ERK phosphorylation (ERK, STAT3; [9]) | cellular growth response [7] | phosphorylation of FIG-ROS(L) (FIG-ROS(L); [9]) | cellular growth response (Karpas 299 cells [8]) | cellular growth response (BaF3 expressing FLT3ITD) | phosphorylation of FIG-ROS(S) (FIG-ROS(S); [10]) | phosphorylation of STAT3 and ERK (STAT3, AKT, ERK, Shp2 [4]; [10]) | phosphorylation of STAT3 and ERK (STAT3, AKT, ERK, Shp2 [5]; [10]) | STAT3 and ERK phosphorylation (ERK, STAT3; [10]) | phosphorylation of FIG-ROS(L) (FIG-ROS(L); [10])
COc1cc(N2CCC(N3CCN(C)CC3)CC2)ccc1Nc1ncc(Cl)c(Nc2ccccc2S(=O)(=O)C(C)C)n1 [TAE-684] | did not die by apoptosis | die by apoptosis | die by apoptosis | inhibited | inhibited | not affected | stopped growing | inhibited | stopped growing | inhibited | stopped growing | not susceptible | – | – | – | – | –
C[C@@H](Oc1cc(-c2cnn(C3CCNCC3)c2)cnc1N)c1c(Cl)ccc(F)c1Cl [crizotinib] | – | – | – | – | – | – | – | – | – | – | – | – | inhibited | inhibited | not affected | inhibited | inhibited
